According to paper PMC5216056 (Nature Communications, 2017):
“And” between values parts separate entries of the source, which are not always exact repeats. Identical values can stand only once. Like-named read-outs stand apart in the source and are kept apart here.

What was measured:
hCB2R [1] = target: T1, hCB2R (Homo sapiens, UniProt P34972); assay: cell-based; assay type: cell-based; details: for Emax: read-out: Emax ± SEM β-AR recruitment hCB2R
hCB2R [2] = target: T1, hCB2R; assay: cell-based; assay type: cell-based; design: expressed in transfected cells; host or cells: Flp-In-293 (Invitrogen #R750-07), pcDNA5/FRT; details: for Emax: read-out: Emax ± SEM pERK hCB2R
5-HT2B (h) = target: T2, 5-HT2B (h) (Homo sapiens, UniProt P41595); assay: CEREP panel; assay type: binding; details: 10 µM
T2 construct: CEREP (contract assay)
T2 sequence (P41595 whole entry): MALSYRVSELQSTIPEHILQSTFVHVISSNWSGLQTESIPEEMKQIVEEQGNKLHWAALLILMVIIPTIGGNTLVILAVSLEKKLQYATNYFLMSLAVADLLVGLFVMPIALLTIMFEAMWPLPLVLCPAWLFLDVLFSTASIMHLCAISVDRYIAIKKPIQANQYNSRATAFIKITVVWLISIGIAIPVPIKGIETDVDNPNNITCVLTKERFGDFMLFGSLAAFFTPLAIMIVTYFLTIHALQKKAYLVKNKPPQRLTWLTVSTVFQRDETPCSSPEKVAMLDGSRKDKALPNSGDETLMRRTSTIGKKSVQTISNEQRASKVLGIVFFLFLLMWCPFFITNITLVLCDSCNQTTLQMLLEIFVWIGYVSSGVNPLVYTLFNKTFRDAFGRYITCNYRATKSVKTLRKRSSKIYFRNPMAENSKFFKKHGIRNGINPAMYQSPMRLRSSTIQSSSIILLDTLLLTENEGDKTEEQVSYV

hCB2R [3] = target: T1, hCB2R; assay: cell-based; assay type: cell-based; design: expressed in transfected cells; host or cells: Flp-In-293 (Invitrogen #R750-07), pcDNA5/FRT; details: for Emax: read-out: Emax ± SEM cAMP hCB2R
MAGL = target: T3, MAGL (Homo sapiens, UniProt Q99685); assay: Biochemical MAGL activity assay; details: for inhibition at 10 µM: read-out: MAGL % inhibition at 10 µM ± SD
T3 construct: expressed in transfected cells; host or cells: HEK293T (transient), membrane preparation
T3 sequence (Q99685 1-303): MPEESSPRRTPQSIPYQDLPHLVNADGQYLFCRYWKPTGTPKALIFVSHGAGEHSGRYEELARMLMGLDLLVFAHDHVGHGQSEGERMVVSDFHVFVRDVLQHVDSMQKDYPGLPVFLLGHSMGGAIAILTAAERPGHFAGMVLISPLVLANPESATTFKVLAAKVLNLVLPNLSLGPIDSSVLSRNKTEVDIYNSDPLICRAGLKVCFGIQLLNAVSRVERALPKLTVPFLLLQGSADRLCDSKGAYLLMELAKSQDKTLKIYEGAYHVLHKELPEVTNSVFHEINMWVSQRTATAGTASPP
Description: (§1) Cell culture and membrane preparation were performed as previously described. HEK293T cells (source: Dutch Cancer Institute) were grown in DMEM with stable glutamine and phenolred (PAA), 10% New Born Calf serum, penicillin and streptomycin. Cells were passaged every 2–3 days by resuspending in medium and seeding them to appropriate confluence. Membranes were prepared from transiently transfected HEK293T cells. One day prior to transfection 10^7 cells were seeded in a 15 cm petri dish. Cells were transfected by the addition of a 3:1 mixture of polyethyleneimine (60 μg) and plasmid DNA (20 μg) in 2 ml serum-free medium. The medium was refreshed after 24 h, and after 72 h the cells were harvested by suspending them in 20 ml medium. The suspension was centrifuged for 10 min at 1000, rpm, and the supernatant was removed. The cell pellet was stored at −80 °C until use. Cell pellets were thawed on ice and suspended in lysis buffer A (20 mM HEPES, 2 mM DTT, 0.25 M sucrose, 1 mM MgCl2, […] Benzonase). The suspension was homogenized by polytrone (3 × 7 s) and incubated for 30 min on ice. The suspension was subjected to ultracentrifugation (100,000 × g, 30 min, 4 °C, Beckman Coulter, Type Ti70 rotor) to yield the cytosolic fraction in the supernatant and the membrane fraction as a pellet. The pellet was resuspended in lysis buffer B (20 mM HEPES, 2 mM DTT). The protein concentration was determined with Quick Start Bradford assay (Biorad). The protein fractions were diluted to a total protein concentration of 1 mg ml^−1 and stored in small aliquots at −80 °C until use.
Percentage of inhibition of reference ligands was determined in comparison with an untreated control. […] Fluorescence was measured in 5 min intervals for 60 min.

hDAGL-α = target: T4, hDAGL-α (Homo sapiens, UniProt Q9Y4D2); assay: Biochemical DAGLα activity assay; details: for inhibition at 10 µM: read-out: DAGL % inhibition at 10 µM ± SD
T4 construct: expressed in transfected cells; host or cells: HEK293T (transient), membrane preparation
T4 sequence (Q9Y4D2 1-1042): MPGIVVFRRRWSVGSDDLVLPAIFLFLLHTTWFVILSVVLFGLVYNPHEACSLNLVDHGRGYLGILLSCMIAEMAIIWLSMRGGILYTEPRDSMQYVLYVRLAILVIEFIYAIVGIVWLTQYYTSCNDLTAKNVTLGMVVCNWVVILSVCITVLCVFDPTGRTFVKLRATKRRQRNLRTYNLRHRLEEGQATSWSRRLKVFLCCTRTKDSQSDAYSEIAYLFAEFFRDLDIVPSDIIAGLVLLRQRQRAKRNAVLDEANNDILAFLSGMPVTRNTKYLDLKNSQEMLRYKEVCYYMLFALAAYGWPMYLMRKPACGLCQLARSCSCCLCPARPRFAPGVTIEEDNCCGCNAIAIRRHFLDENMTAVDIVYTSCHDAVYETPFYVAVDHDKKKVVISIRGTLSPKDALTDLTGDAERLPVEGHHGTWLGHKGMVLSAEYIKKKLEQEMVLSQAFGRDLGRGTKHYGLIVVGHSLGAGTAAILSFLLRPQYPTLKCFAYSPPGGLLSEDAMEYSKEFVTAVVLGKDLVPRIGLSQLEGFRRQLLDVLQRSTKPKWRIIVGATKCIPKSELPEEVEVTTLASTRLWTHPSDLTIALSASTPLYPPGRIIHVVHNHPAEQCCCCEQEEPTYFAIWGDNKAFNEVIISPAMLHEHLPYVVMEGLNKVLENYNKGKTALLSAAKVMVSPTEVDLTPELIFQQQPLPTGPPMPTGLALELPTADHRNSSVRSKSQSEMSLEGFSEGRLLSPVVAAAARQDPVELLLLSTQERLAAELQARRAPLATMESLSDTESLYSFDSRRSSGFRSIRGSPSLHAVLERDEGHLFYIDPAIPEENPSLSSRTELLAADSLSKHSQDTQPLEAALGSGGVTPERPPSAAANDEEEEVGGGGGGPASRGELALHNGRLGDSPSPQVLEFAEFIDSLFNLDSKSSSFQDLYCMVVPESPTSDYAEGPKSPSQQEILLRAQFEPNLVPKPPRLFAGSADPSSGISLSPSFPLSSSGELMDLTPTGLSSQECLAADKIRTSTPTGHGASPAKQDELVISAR
Description: as §1
hDAGL-α activity was measured by the extent of the hydrolysis of para-nitrophenylbutyrate (PNP-butyrate) by membrane preparations from HEK293T cells (source: Dutch Cancer Institute) transiently transfected with hDAGL-α (ref. [43]). Percentage of inhibition of reference ligands was determined in comparison with an untreated control. Reactions were performed in 50 mM pH 7.2 HEPES buffer with 0.05 μg μl^−1 final protein concentration hDAGL-α transfected protein.

[4] = for Pct acceptor / Pct donor / Pct membrane: PAMPA; for Pct membrane: compound found in membranes; for Pampa Peff: membrane permeation coefficient
mCB2R = mCB2R (Mus musculus, UniProt P47936); assay: biochemical; assay type: binding; design: from tissue; host or cells: spleen of male C57BL/6J mice
mCB2R, sequence (P47936 whole entry): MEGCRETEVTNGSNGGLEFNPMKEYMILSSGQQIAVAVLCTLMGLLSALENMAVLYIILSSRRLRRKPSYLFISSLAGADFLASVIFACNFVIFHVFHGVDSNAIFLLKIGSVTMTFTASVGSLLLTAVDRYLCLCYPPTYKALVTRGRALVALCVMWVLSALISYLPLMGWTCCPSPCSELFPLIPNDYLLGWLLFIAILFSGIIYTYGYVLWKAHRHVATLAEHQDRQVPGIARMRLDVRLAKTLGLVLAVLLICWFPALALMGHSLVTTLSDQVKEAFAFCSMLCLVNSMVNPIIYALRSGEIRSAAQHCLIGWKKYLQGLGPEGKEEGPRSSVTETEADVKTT

[5] = antagonists in presence of EC80 of CP55940
[6] = normalized to 10 µM CP55940, negative = inhibition of EC80 of CP55940

T1 sequence (P34972 whole entry): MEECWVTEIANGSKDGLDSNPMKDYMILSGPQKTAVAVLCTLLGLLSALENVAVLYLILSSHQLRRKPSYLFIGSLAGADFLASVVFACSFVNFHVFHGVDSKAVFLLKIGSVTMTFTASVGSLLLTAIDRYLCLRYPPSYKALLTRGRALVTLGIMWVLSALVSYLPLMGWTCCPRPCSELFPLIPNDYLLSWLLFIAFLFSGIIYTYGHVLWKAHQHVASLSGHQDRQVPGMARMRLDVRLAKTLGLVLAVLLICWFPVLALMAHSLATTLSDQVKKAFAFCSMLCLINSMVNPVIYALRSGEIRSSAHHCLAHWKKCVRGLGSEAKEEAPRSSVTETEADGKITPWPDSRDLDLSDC

| Compound | Emax ± SEM β-AR recruitment hCB2R (hCB2R [1]) | Emax ± SEM pERK hCB2R (hCB2R [2]) | % inhibition 5-HT2B (h) (5-HT2B (h)) [%] | Emax ± SEM cAMP hCB2R (hCB2R [3]) | MAGL % inhibition at 10 µM ± SD (MAGL) [%] | DAGL % inhibition at 10 µM ± SD (hDAGL-α) [%] | Pct acceptor [4] [%] | Pct donor [4] [%] | Pct membrane [4] [%] | Pampa Peff [4] [cm/s*10-6] | pKi ± SEM mCB2R (mCB2R; mouse spleen membranes) | inhibition at 10 µM (MAGL) [%] | inhibition at 10 µM (hDAGL-α) [%] | also measured |
| --- | --- | --- | --- | --- | --- | --- | --- | --- | --- | --- | --- | --- | --- | --- |
| Cc1c(C(=O)NN2CCCCC2)nn(-c2ccc(Cl)cc2Cl)c1-c1ccc(I)cc1 [AM251] | -104 ± 8 | -90 ± 3 | 28 | -175 ± 19 | 0 ± 16 | 17 ± 6 | – | – | – | – | – | – | – | – |
| Cc1ccc2c(c1)Cc1c(C(=O)NN3CCCCC3)nn(-c3ccc(Cl)cc3Cl)c1-2 [Gp-1a] | – | – | 29 | – | -1 ± 15 | – | 0 | 29.7 | 70.3 | 0 | 7.68 ± 0.23 | – | – | pEC50 ± SEM β-AR recruitment hCB2R (hCB2R [1]; [5]): 5.86 ± 0.16; Emax ± SEM β-AR recruitment hCB2R (hCB2R [1]; [6]): -147 ± 11%; Emax ± SEM pERK hCB2R (hCB2R [2]; normalized to 10 µM CP55940): 5 ± 6%; pEC50 ± SEM cAMP hCB2R (hCB2R [3]; [5]): 7.52 ± 0.14; Emax ± SEM cAMP hCB2R (hCB2R [3]; normalized to 10 µM CP55940): -85 ± 10%; CB2R Selectivity (binding, mouse) (mCB2R; 10^(pKi CB2R-pKi CB1R)): 20 fold |
| SR144528 | – | – | 22 | – | 3 ± 16 | -28 ± 11 | – | – | – | – | – | – | – | Emax ± SEM β-AR recruitment hCB2R (hCB2R [1]; [6]): -111 ± 3%; Emax ± SEM pERK hCB2R (hCB2R [2]; normalized to 10 µM CP55940): -99 ± 3%; Emax ± SEM cAMP hCB2R (hCB2R [3]; normalized to 10 µM CP55940): -151 ± 10% |
| CCCn1c(C)c(C(=O)c2cccc3ccccc23)c2ccccc21 [JWH015] | – | – | 94 | – | 0 ± 17 | -8 ± 5 | – | – | – | – | 6.63 ± 0.21 | – | – | – |
| CCCCC/C=C\C/C=C\C/C=C\C/C=C\CCCC(=O)OC(CO)CO [2-AG, 2-arachidonoyl glycerol] | – | – | – | – | – | – | – | – | – | – | – | 3 ± 15 | -12 ± 16 | EC50 (hCB2R [1]): 2 µM; Emax (hCB2R [1]): 80 ± 21%; EC50 (hCB2R [2]; pEC50 ± SEM pERK hCB2R): 3.89 µM and > 3.16 µM; Emax (hCB2R [2]): 99 ± 11%; Emax (hCB2R [3]): 94 ± 1%; Ki (mCB2R; mouse spleen membranes, read-out: pKi ± SEM mCB2R (converted)): 0.0295 µM |
| CN1CCCC[C@@H]1Cn1cc(C(=O)c2cc([N+](=O)[O-])ccc2I)c2ccccc21 [(R)-AM1241] | 29 ± 4 | 75 ± 9 | – | 65 ± 2 | -2 ± 18 | 10 ± 12 | 2.1 | 38.3 | 59.7 | 1.22 | 7.59 ± 0.11 | – | – | pEC50 ± SEM β-AR recruitment hCB2R (hCB2R [1]): 7.52 ± 0.43; CB2R Selectivity β-AR recruitment (hCB2R [1]; 10^(pEC50 CB2R-pEC50 CB1R)): 86 fold; pEC50 ± SEM pERK hCB2R (hCB2R [2]): 7.84 ± 0.29; CB2R Selectivity pERK (hCB2R [2]; 10^(pEC50 CB2R-pEC50 CB1R)): 151 fold; pEC50 ± SEM cAMP hCB2R (hCB2R [3]): 8.76 ± 0.18; CB2R Selectivity cAMP (human) (hCB2R [3]; 10^(pEC50 CB2R-pEC50 CB1R)): 391 fold; CB2R Selectivity (binding, mouse) (mCB2R; 10^(pKi CB2R-pKi CB1R)): 17 fold |
| Cc1c(C(=O)NN2CCCCC2)nn(-c2ccc(Cl)cc2Cl)c1-c1ccc(Cl)cc1 [SR141716A] | – | – | – | – | – | – | 0.3 | 25.2 | 74.3 | 0.27±0.11 | – | 4 ± 18 | 20 ± 10 | inhibition at 10 µM (5-HT2B (h); read-out: % inhibition 5-HT2B (h)): 16% |
| CCCCC/C=C\C/C=C\C/C=C\C/C=C\CCCC(=O)NCCO [Anandamide, N-arachidonoylethanolamine] | – | – | – | – | – | – | 1.2 | 96.3 | 2.7 | 0.26 | – | -2 ± 19 | 32 ± 22 | Emax (hCB2R [1]): 38 ± 3%; Emax (hCB2R [2]): 62 ± 2%; Emax (hCB2R [3]): 87 ± 7%; Ki (mCB2R): 0.347 µM |
| CN1CCCCC1Cn1cc(C(=O)c2cc([N+](=O)[O-])ccc2I)c2ccccc21 (racemic) [(rac)-AM1241] | 14 ± 2 | 32 ± 12 | – | 67 ± 3 | -2 ± 17 | 3 ± 10 | – | 41.3 | 55.7 | 1.86±0.62 | 7.73 ± 0.25 | – | – | pEC50 ± SEM β-AR recruitment hCB2R (hCB2R [1]): < 5; CB2R Selectivity pERK (hCB2R [2]): 339; pEC50 ± SEM pERK hCB2R (hCB2R [2]): 7.6 ± 0.88; pEC50 ± SEM cAMP hCB2R (hCB2R [3]): 8.49± 0.08; CB2R Selectivity (binding, mouse) (mCB2R): 66 fold |
